Measured values as given in the supplement of paper PMC10307832.

Columns and labels:
Experiment in all cases: relative viability (nuclei count vs DMSO), 5 days (fraction); higher = more cells survive
[1] = compound: O=C(NCCCNc1nc(Nc2cccc(NC(=O)N3CCCC3)c2)ncc1I)c1cccs1 [BX 795] + CS(=O)(=O)CCNCc1ccc(-c2ccc3ncnc(Nc4ccc(OCc5cccc(F)c5)c(Cl)c4)c3c2)o1 [Lapatinib] (partner 2 µM)
Outline: (§1)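 Medians of duplicate plates are given as relative viability. That measure is the nuclei count in treated wells divided by the count in vehicle wells. Counts were taken on 4× images of lung cancer cell lines in 1536-well plates, 5 days after pin-tool dosing the day after seeding with one drug alone or a fixed anchor-drug dose plus five library-drug doses (not always all listed) in √10 steps.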

[2] = compound: O=C(NCCCNc1nc(Nc2cccc(NC(=O)N3CCCC3)c2)ncc1I)c1cccs1 [BX 795] + Cc1nc(NC(=O)N2CCC[C@H]2C(N)=O)sc1-c1ccnc(C(C)(C)C(F)(F)F)c1 [Alpelisib] (partner 2 µM)
Outline: as §1

[3] = compound: O=C(NCCCNc1nc(Nc2cccc(NC(=O)N3CCCC3)c2)ncc1I)c1cccs1 [BX 795] + Nc1ncn([C@H]2C[C@H](O)[C@@H](CO)O2)c(=O)n1 [Decitabine] (partner 2 µM)
Outline: as §1

[4] = compound: O=C(NCCCNc1nc(Nc2cccc(NC(=O)N3CCCC3)c2)ncc1I)c1cccs1 [BX 795] + COc1cc2c(Oc3ccc(NC(=O)C4(C(=O)Nc5ccc(F)cc5)CC4)cc3F)ccnc2cc1OCCCN1CCOCC1 [Foretinib] (partner 0.25 µM)
Outline: as §1

[5] = compound: O=C(NCCCNc1nc(Nc2cccc(NC(=O)N3CCCC3)c2)ncc1I)c1cccs1 [BX 795] + CC1(C)CCC(c2ccc(Cl)cc2)=C(CN2CCN(c3ccc(C(=O)NS(=O)(=O)c4ccc(N[C@H](CCN5CCOCC5)CSc5ccccc5)c(S(=O)(=O)C(F)(F)F)c4)cc3)CC2)C1 [Navitoclax] (partner 0.5 µM)
Outline: as §1

Cell Line | relative viability ([1]; first compound 0.04 µM) | relative viability ([1]; first compound 0.1265 µM) | relative viability ([1]; first compound 0.4 µM) | relative viability ([1]; first compound 1.265 µM) | relative viability ([2]; first compound 0.04 µM) | relative viability ([2]; first compound 0.1265 µM) | relative viability ([2]; first compound 0.4 µM) | relative viability ([2]; first compound 1.265 µM) | relative viability ([3]; first compound 0.04 µM) | relative viability ([3]; first compound 0.1265 µM) | relative viability ([3]; first compound 0.4 µM) | relative viability ([3]; first compound 1.265 µM) | relative viability ([4]; first compound 0.04 µM) | relative viability ([4]; first compound 0.1265 µM) | relative viability ([4]; first compound 0.4 µM) | relative viability ([4]; first compound 1.265 µM) | relative viability ([5]; first compound 0.04 µM) | relative viability ([5]; first compound 0.1265 µM) | relative viability ([5]; first compound 0.4 µM) | relative viability ([5]; first compound 1.265 µM)
LOU-NH91 | 0.698 | 0.744 | 0.708 | 0.715 | 0.695 | 0.666 | 0.621 | 0.741 | 0.818 | 0.791 | 0.803 | 0.798 | 0.936 | 0.922 | 0.934 | 0.979 | 0.686 | 0.735 | 0.594 | 0.686
LU99A | 1.05 | 1.03 | 0.714 | 0.665 | 0.541 | 0.445 | 0.482 | 0.222 | 0.967 | 0.81 | 0.921 | 0.428 | 0.808 | 0.901 | 0.793 | 0.602 | 1.03 | 0.755 | 0.821 | 0.498
LXF-289 | 0.867 | 0.896 | 0.904 | 0.843 | 1.06 | 1.04 | 1.11 | 0.693 | 0.448 | 0.347 | 0.582 | 0.373 | 0.963 | 0.908 | 1.02 | 0.9 | 0.971 | 0.926 | 0.975 | 0.628
NCI-H23 | 1.24 | 1.26 | 0.812 | 0.884 | 0.659 | 0.737 | 0.743 | 0.526 | 0.298 | 0.234 | 0.346 | 0.315 | 0.943 | 0.872 | 1 | 0.472 | 0.983 | 0.916 | 0.672 | 0.355
NCI-H322M | 0.675 | 0.616 | 0.628 | 0.684 | 0.889 | 0.846 | 0.886 | 1 | 0.87 | 0.887 | 0.801 | 0.741 | 0.949 | 1.17 | 0.967 | 1.33 | 1.41 | 1.19 | 1.35 | 1.25
NCI-H460 | 0.952 | 1.62 | 0.892 | 0.729 | 0.475 | 0.457 | 0.498 | 0.245 | 0.497 | 0.584 | 0.446 | 0.403 | 1.03 | 1.16 | 1.01 | 0.922 | 1.1 | 1.25 | 1.16 | 0.973
NCI-H520 | 0.38 | 0.778 | 0.672 | 0.301 | 0.859 | 0.91 | 0.786 | 0.444 | 0.55 | 0.545 | 0.622 | 0.425 | 0.555 | 0.772 | 0.832 | 0.365 | 0.736 | 1.12 | 0.95 | 0.535
NCI-H596 | 1.01 | 1.11 | 1.11 | 1.15 | 0.508 | 0.483 | 0.546 | 0.363 | 1.05 | 0.982 | 1.1 | 1.08 | 0.873 | 0.745 | 1.07 | 0.787 | 1.04 | 1.05 | 1.16 | 0.945
NCI-H647 | 1.08 | 1.21 | 0.941 | 0.362 | 1.13 | 1.18 | 1.31 | 0.522 | 0.383 | 0.447 | 0.513 | 0.37 | 1.19 | 1.24 | 1.26 | 0.916 |  | 1.08 | 1.07 | 1.01
NCI-H727 | 0.737 | 1.01 | 0.735 | 0.637 | 0.577 | 0.763 | 0.583 | 0.376 | 1.23 | 0.943 | 0.845 | 0.905 | 0.957 | 0.846 | 0.916 | 1.09 | 0.45 | 0.535 | 0.471 | 0.37
NCI-H838 | 0.87 | 0.943 | 0.736 | 0.424 | 0.944 | 1.03 | 0.995 | 0.412 | 0.568 | 0.487 | 0.512 | 0.322 | 0.952 | 0.924 | 0.917 | 0.413 | 1.05 | 1.1 | 1.02 | 0.519
NCI-H1355 | 1.05 | 0.976 | 1.11 | 0.946 | 0.833 | 0.808 | 0.914 | 0.781 | 0.355 | 0.278 | 0.449 | 0.337 | 1.03 | 1.07 | 1.09 | 0.773 | 0.974 | 0.937 | 1.09 | 0.626
NCI-H1395 | 0.815 | 0.819 | 0.595 | 0.948 | 1.3 | 0.956 | 0.663 | 0.809 | 0.693 | 0.774 | 0.48 | 0.597 | 0.979 | 1.02 | 0.943 | 0.899 | 1.23 | 1.06 | 0.531 | 0.837
NCI-H1437 | 0.833 | 0.858 | 0.782 | 0.547 | 1.02 | 1.06 | 1.01 | 0.863 | 0.616 | 0.586 | 0.846 | 0.618 | 1.08 | 1.25 | 1.39 | 0.99 | 1.08 | 1.06 | 1.15 | 0.94
NCI-H1651 | 0.756 | 0.801 | 0.764 | 0.64 | 0.933 | 1.02 | 0.881 | 0.782 | 0.801 | 0.624 | 0.6 | 0.645 | 0.786 | 0.748 | 0.76 | 0.674 | 1 | 1.13 | 1.04 | 0.932
NCI-H1666 | 0.858 | 0.653 | 0.695 | 0.656 | 1.07 | 1.11 | 1.01 | 0.799 | 0.925 | 0.69 | 0.785 | 0.686 | 1.07 | 1.05 | 1.11 | 0.787 | 1.12 | 1.31 | 1.14 | 0.717
